In patent US7807701B2, “Dibenzylamine compounds and pharmaceutical use thereof” (Japan Tobacco Inc., priority 2002, dated 2010):
pIC50: −log10 of the molar value. Structures can show the parent of a compound that is named as a salt.

What follows are molecules tested against T1, CETP (Homo sapiens, UniProt P11597) (assay: Inhibitory effect in vitro on CETP activity in total plasma). Settings: plasma of healthy subject with [3H]CE-HDL3, 37° C., 4 hr; average values.
T1 construct: The donor lipoprotein obtained above was added to plasma of healthy subject; from tissue; host or cells: whole plasma of healthy subject
T1 sequence (P11597 18-493): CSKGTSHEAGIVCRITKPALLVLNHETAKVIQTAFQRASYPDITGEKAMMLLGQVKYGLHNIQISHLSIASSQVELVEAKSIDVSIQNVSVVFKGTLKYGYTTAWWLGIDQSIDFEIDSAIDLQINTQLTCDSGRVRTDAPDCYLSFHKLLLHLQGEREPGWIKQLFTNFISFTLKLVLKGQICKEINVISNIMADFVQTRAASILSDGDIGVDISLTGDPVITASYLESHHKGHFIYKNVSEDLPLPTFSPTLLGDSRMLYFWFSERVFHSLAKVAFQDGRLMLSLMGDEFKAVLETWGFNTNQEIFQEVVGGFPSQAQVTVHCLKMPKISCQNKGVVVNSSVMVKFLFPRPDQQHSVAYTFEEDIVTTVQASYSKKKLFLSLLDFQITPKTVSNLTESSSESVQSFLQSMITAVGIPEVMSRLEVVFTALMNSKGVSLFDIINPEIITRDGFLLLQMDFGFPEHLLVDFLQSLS
Format: biochemical
Outline: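 Healthy-donor plasma spiked with [3H]cholesteryl ester-labelled HDL3 (1,000 dpm/μL) was incubated with compound (DMF vehicle) for 4 hr at 37 °C or 4 °C. HDL was separated by MgCl2/dextran sulfate precipitation and supernatant radioactivity counted. IC50 is the concentration giving 50% inhibition of CETP activity.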
`CCN(CCCCC(=O)OC)c1cc2c(cc1CN(Cc1cc(C#N)cc(C(F)(F)F)c1)c1ccn(C)n1)CCC2` [Example 55, methyl 5-[N-(6-{[N′-(3-cyano-5-trifluoromethylbenzyl)-N′-(1-methyl-1H-pyrazol-3-yl)amino]methyl}indan-5-yl)-N-ethylamino]pentanoate hydrochloride] gave a pIC50 of 6.11. `CCN(CCCCC(=O)O)c1cc2c(cc1CN(Cc1cc(C(F)(F)F)cc(C(F)(F)F)c1)c1cc(C)no1)CCCC2` [Example 78, 5-[N-(3-{[N′-[3,5-bis(trifluoromethyl)benzyl]-N′-(3-methylisoxazol-5-yl)amino]methyl}-5,6,7,8-tetrahydronaphthalen-2-yl)-N-ethylamino]pentanoic acid hydrochloride] was tested, and the pIC50 was 6.49. Work on `CCN(CCCCC(=O)OC)c1cc2c(cc1CN(Cc1cc(C#N)cc(C(F)(F)F)c1)c1nnn(C)n1)CCC2.Cl` [Example 36, hydrochloride] yielded a pIC50 of 6.47. Molecule `CCN(CC1CCCC1)c1cc2c(cc1CN(Cc1cc(C#N)cc(C(F)(F)F)c1)c1nnn(C)n1)CCC2` [Example 10, 3-{[N-[6-(N′-cyclopentylmethyl-N′-ethylamino)indan-5-ylmethyl]-N-(2-methyl-2H-tetrazol-5-yl)amino]methyl}-5-trifluoromethylbenzonitrile] has a pIC50 of 6.64. `CCN(C[C@H]1CC[C@H](C(=O)O)CC1)c1cc2c(cc1CN(Cc1cc(C#N)cc(C(F)(F)F)c1)c1ncn(C)n1)CCC2` [Example 60, trans-4-{[N-(6-{[N′-(3-cyano-5-trifluoromethylbenzyl)-N′-(1-methyl-1H-[1,2,4]triazol-3-yl)amino]methyl}indan-5-yl)-N-ethylamino]methyl}cyclohexanecarboxylic acid] showed a pIC50 of 6.11. `CCN(CC1CCCC1)c1cc2c(cc1CN(Cc1cc(C(F)(F)F)cc(C(F)(F)F)c1)c1nnn(C)n1)CCC2` [Example 3, N-[3,5-bis(trifluoromethyl)benzyl]-N-[6-(N′-cyclopentylmethyl-N′-ethylamino)indan-5-ylmethyl]-(2-methyl-2H-tetrazol-5-yl)amine] showed a pIC50 of 6.62. With `CCN(C[C@H]1CC[C@H](C(=O)O)CC1)c1cc2c(cc1CN(Cc1cc(C(F)(F)F)cc(C(F)(F)F)c1)c1nnn(C)n1)CCCC2` [Example 67, trans-4-{[N-(3-{[N′-[3,5-bis(trifluoromethyl)benzyl]-N′-(2-methyl-2H-tetrazol-5-yl)amino]methyl}-5,6,7,8-tetrahydronaphthalen-2-yl)-N-ethylamino]methyl}cyclohexanecarboxylic acid hydrochloride] the pIC50 was 6.59. `CCN(C[C@H]1CC[C@H](CCO)CC1)c1ccc(OC(F)(F)F)cc1CN(Cc1cc(C(F)(F)F)cc(C(F)(F)F)c1)c1nnn(C)n1` [Example 140, trans-2-(4-{[N-(2-{[N′-[3,5-bis(trifluoromethyl)benzyl]-N′-(2-methyl-2H-tetrazol-5-yl)amino]methyl}-4-trifluoromethoxyphenyl)-N-ethylamino]methyl}cyclohexyl)ethanol hydrochloride] showed a pIC50 of 6.92. For `CCN(CCCCC(=O)O)c1cc2c(cc1CN(Cc1cc(C(F)(F)F)cc(C(F)(F)F)c1)c1nnn(C)n1)CCCC2` [Example 80, 5-[N-(3-{[N′-[3,5-bis(trifluoromethyl)benzyl]-N′-(2-methyl-2H-tetrazol-5-yl)amino]methyl}-5,6,7,8-tetrahydronaphthalen-2-yl)-N-ethylamino]pentanoic acid hydrochloride], the pIC50 was 6.37. With `CCN(C[C@H]1CC[C@H](C(=O)O)CC1)c1cc2c(cc1CN(Cc1cc(C#N)cc(C(F)(F)F)c1)c1nnn(C)n1)CCC2` [Example 52, trans-4-{[N-(6-{[N′-(3-cyano-5-trifluoromethylbenzyl)-N′-(2-methyl-2H-tetrazol-5-yl)amino]methyl}indan-5-yl)-N-ethylamino]methyl}cyclohexanecarboxylic acid hydrochloride] the pIC50 was 6.43. `CCN(CC1CCCC1)c1cc2c(cc1CN(Cc1cc(C(F)(F)F)cc(C(F)(F)F)c1)c1nnn(CCO)n1)CCC2` [Example 73, 2-(5-{N-[3,5-bis(trifluoromethyl)benzyl]-N-[6-(N′-cyclopentylmethyl-N′-ethylamino)indan-5-ylmethyl]amino}tetrazol-2-yl)ethanol hydrochloride] showed a pIC50 of 6.72. `CCN(CCCCC(=O)O)c1ccc(C(F)(F)F)cc1CN(Cc1cc(C(F)(F)F)cc(C(F)(F)F)c1)c1nnn(C)n1` [Example 86, 5-[N-(2-{[N′-[3,5-bis(trifluoromethyl)benzyl]-N′-(2-methyl-2H-tetrazol-5-yl)amino]methyl}-4-trifluoromethylphenyl)-N-ethylamino]pentanoic acid hydrochloride] was tested, and the pIC50 was 6.03. With `CCN(CC(C)(C)CCCC(=O)O)c1cc2c(cc1CN(Cc1cc(C(F)(F)F)cc(C(F)(F)F)c1)c1nnn(C)n1)CCC2` [Example 120, 6-[N-(6-{[N′-[3,5-bis(trifluoromethyl)benzyl]-N′-(2-methyl-2H-tetrazol-5-yl)amino]methyl}indan-5-yl)-N-ethylamino]-5,5-dimethylhexanoic acid hydrochloride] the pIC50 was 6.55. `CCN(CC1CCCC1)c1cc2c(cc1CN(Cc1cc(C(F)(F)F)cc(C(F)(F)F)c1)c1nnn(CC)n1)CCC2` [Example 11, N-[3,5-bis(trifluoromethyl)benzyl]-N-[6-(N′-cyclopentylmethyl-N′-ethylamino)indan-5-ylmethyl]-(2-ethyl-2H-tetrazol-5-yl)amine] showed a pIC50 of 6.20. For “trans-4-{[N-(6-{[N′-(3-cyano-5-trifluoromethylbenzyl)-N′-(3-methylisoxazol-5-yl)amino]methyl}indan-5-yl)-N-ethylamino]methyl}cyclohexanecarboxylic acid hydrochloride [Example 54]”, the pIC50 was 6.10. Work on `CCN(CC1CCCC1)c1cc2c(cc1CN(Cc1cc(C(F)(F)F)cc(C(F)(F)F)c1)c1cc(C)no1)CCC2` [Example 26, N-[3,5-bis(trifluoromethyl)benzyl]-N-[6-(N′-cyclopentylmethyl-N′-ethylamino)indan-5-ylmethyl]-(3-methylisoxazol-5-yl)amine hydrochloride] yielded a pIC50 of 6.33. With `CCN(CC1CCCC1)c1cc2c(cc1CN(Cc1cc(C#N)cc(C(F)(F)F)c1)c1nnn(C)n1)CCCC2` [Example 2, 3-{[N-[3-(N′-cyclopentylmethyl-N′-ethylamino)-5,6,7,8-tetrahydronaphthalen-2-ylmethyl]-N-(2-methyl-2H-tetrazol-5-yl)amino]methyl}-5-trifluoromethylbenzonitrile] the pIC50 was 7.10. In the case of `CCN(C[C@H]1CC[C@H](C(=O)O)CC1)c1cc2c(cc1CN(Cc1cc(C#N)cc(C(F)(F)F)c1)c1nnn(C)n1)CCCC2` [Example 68, trans-4-{[N-(3-{[N′-(3-cyano-5-trifluoromethylbenzyl)-N′-(2-methyl-2H-tetrazol-5-yl)amino]methyl}-5,6,7,8-tetrahydronaphthalen-2-yl)-N-ethylamino]methyl}cyclohexanecarboxylic acid hydrochloride], the pIC50 was 6.55. For `CCN(C[C@H]1CC[C@H](C(=O)O)CC1)c1cc2c(cc1CN(Cc1cc(C(F)(F)F)cc(C(F)(F)F)c1)c1noc(C)n1)CCC2` [Example 82, trans-4-{[N-(6-{[N′-[3,5-bis(trifluoromethyl)benzyl]-N′-(5-methyl-[1,2,4]oxadiazol-3-yl)amino]methyl}indan-5-yl)-N-ethylamino]methyl}cyclohexanecarboxylic acid], the pIC50 was 6.23. `CCN(CC1CCCC1)c1cc2c(cc1CN(Cc1cc(C(F)(F)F)cc(C(F)(F)F)c1)c1noc(C)n1)CCC2` [Example 46, N-[3,5-bis(trifluoromethyl)benzyl]-N-[6-(N′-cyclopentylmethyl-N′-ethylamino)indan-5-ylmethyl]-(5-methyl-[1,2,4]oxadiazol-3-yl)amine hydrochloride] showed a pIC50 of 6.41. `CCN(C[C@H]1CC[C@H](CCC(=O)O)CC1)c1ccc(OC(F)(F)F)cc1CN(Cc1cc(C(F)(F)F)cc(C(F)(F)F)c1)c1nnn(C)n1` [Example 135, trans-3-(4-{[N-(2-{[N′-[3,5-bis(trifluoromethyl)benzyl]-N′-(2-methyl-2H-tetrazol-5-yl)amino]methyl}-4-trifluoromethoxyphenyl)-N-ethylamino]methyl}cyclohexyl)propionic acid hydrochloride] was tested, and the pIC50 was 6.66. Molecule `CCN(C[C@H]1CC[C@H](C(=O)O)CC1)c1cc2c(cc1CN(Cc1cc(C(F)(F)F)cc(C(F)(F)F)c1)c1nnn(CC)n1)CCCC2` [Example 99, trans-4-{[N-(3-{[N′-[3,5-bis(trifluoromethyl)benzyl]-N′-(2-ethyl-2H-tetrazol-5-yl)amino]methyl}-5,6,7,8-tetrahydronaphthalen-2-yl)-N-ethylamino]methyl}cyclohexanecarboxylic acid hydrochloride] has a pIC50 of 6.28. Molecule `CCN(C[C@H]1CC[C@H](C(=O)O)CC1)c1cc2c(cc1CN(Cc1cc(C(F)(F)F)cc(C(F)(F)F)c1)c1nnn(CC)n1)CCC2` [Example 93, trans-4-{[N-(6-{[N′-[3,5-bis(trifluoromethyl)benzyl]-N′-(2-ethyl-2H-tetrazol-5-yl)amino]methyl}indan-5-yl)-N-ethylamino]methyl}cyclohexanecarboxylic acid hydrochloride] has a pIC50 of 6.12.
